According to publication PMC7002685, “Inhibition of vascular calcification by inositol phosphates derivatized with ethylene glycol oligomers” (Nature Communications, 2020):
Several values for one entry are separate records, joined by “and”; a condition that tells them apart may be missing. Equal values may be shown once. Read-outs that look alike come from different tables or passages of the source.

Columns and labels:
[1] = PK i.v. bolus in healthy and adenine/high-phosphate-diet (uremic) rats; format: in vivo, male Sprague-Dawley rats; parameters: plasma concentration (Figure 4g): unit not given here; conditions: for AUC(0-inf) / Cmax / clearance / half-life / AUC(0-t) / MRT last: serum, 10 mg/kg i.v. bolus; for AUC(0-t): read-out: AUC0-240 (converted); for MRT last: read-out: MRT0-240 (converted)
Description: For many drugs, the PK profile depends on the patient’s renal status. Therefore, (OEG2)2-IP4 PK profile was also determined in an adenine and high-phosphate-diet-induced rat model of uremia, in which the compound was administered after serum creatinine levels had increased by fourfold relative to baseline (Fig. 4g, h). […] Similar results were observed following s.c. administration (Supplementary Table 5).
To study PK in uremic animals, male Sprague-Dawley rats (Charles River Laboratories, L’Arbresle, France) were housed two per cage with free access to water and standard chow (rat/mouse maintenance diet, SSNIFF Spezialdiäten GmbH, Soest, Germany) and submitted to a 12-h light/dark cycle. Animals were fed a low-protein (2.5%) diet containing high phosphorus (1.3% phosphorus and 0.7% calcium) and 0.3% adenine to induce uremia (SSNIFF Spezialdiäten GmbH). Control animals were fed same diet but without adenine. Every 10 days, a sample of blood was punctured at the tail vein of each animal. Serum and urine creatinine, calcium, and phosphorus were then assessed using standard colorimetric biochemistry analysis (Cobas Mira, Roche, Basel, Switzerland). When a fourfold increase of creatinine was observed compared to control, the rat was considered uremic and suitable for PK experiments. The method was validated using eight animals on control- and adenine-supplemented diet respectively. For PK studies, on the morning of the experimental day, a catheter was inserted in the right carotid artery under halothane anesthesia. Subsequently, rats were allowed to recover for 3 h and uremic and non-uremic rats, respectively, were assigned to three groups of six rats each. […] Blood aliquots were drawn after drug administration, centrifuged, decanted, and stored at −80 °C until serum drug quantification by LC-MS, as well as analysis of serum creatinine, calcium, and phosphorus (Cobas Mira).
The bioanalytical method for (OEG2)2-IP4 in rat plasma was further optimized, qualified, and applied to the comparative PK study in adenine and high-phosphate diet-induced VC vs. vitamin D-induced VC animals. The LC-MS/MS analyses were carried out using a Dionex Ultimate RSLC ultra-high-pressure liquid chromatography (UHPLC) system (Thermo Fisher Scientific) coupled with a TSQ Quantiva^TM triple quadrupole mass spectrometer. The samples were stored at 5 °C in the autosampler prior to and during the analyses. […] Gradient elution (solvent A, 20 mM ammonium acetate in water (pH 5); solvent B, ACN) was used according to the program reported in Supplementary Table 18. The injection volume was 10 µL. MS/MS parameters (MRM acquisition, cycle time 0.2 s) for (OEG2)2-IP4 are reported in Supplementary Table 19 and the ESI source, working in negative ionization mode, applied the following parameters: static spray voltage 3000 V ion transfer tube and vaporizer temperatures at 400 and 100 °C, respectively; sheath and auxiliary gas (nitrogen) flow rates at 80 and 3 (arbitrary units). For the quantitative determination in rat plasma, product ion m/z 158.9 was selected because it provided the best sensitivity and selectivity. Calibration curve and quality control samples were prepared by adding 2 μL of working solution to 38 μL rat blank K3EDTA plasma (Biochemed, Winchester, VA) and precipitating plasma protein by addition of 120 μL of MeOH including internal standard OEG11-IP5. Samples were vortexed 1 min and centrifuged at (22,000 × g, 4 °C, 10 min). Supernatants (90 μL) were then transferred into a glass vial with insert and injected onto LC-MS/MS system. Both in adenine and high-phosphate diet-induced VC and vitamin D-induced VC rat PK samples were prepared for analysis in an analogous manner as done for spiked samples (assay volume 40 μL). The LLOQ and LOD in rat plasma for (OEG2)2-IP4 were 50 and 10 ng/mL, respectively. The ULOQ and detection was 50,000 ng/mL.

Dopamine D1 = target: T1, Dopamine D1 (Homo sapiens, UniProt P21728); test: Off-target 219500 (D1); format: binding
T1 construct: purchased Eurofins Panlabs Discovery Services Taiwan, Ltd
T1 sequence (P21728 whole entry): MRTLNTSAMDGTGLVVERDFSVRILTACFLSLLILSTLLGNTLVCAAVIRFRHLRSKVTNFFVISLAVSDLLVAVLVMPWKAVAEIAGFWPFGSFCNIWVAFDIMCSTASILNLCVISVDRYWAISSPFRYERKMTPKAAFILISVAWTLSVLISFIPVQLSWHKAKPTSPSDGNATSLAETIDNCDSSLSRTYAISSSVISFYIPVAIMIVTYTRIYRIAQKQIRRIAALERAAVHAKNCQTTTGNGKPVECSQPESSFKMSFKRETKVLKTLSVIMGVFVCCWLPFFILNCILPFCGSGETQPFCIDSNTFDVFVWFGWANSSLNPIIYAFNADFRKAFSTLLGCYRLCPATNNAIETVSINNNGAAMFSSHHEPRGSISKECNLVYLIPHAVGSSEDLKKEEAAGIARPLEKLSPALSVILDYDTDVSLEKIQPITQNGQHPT
Description: (§1) The potential off-target activity of 10 µM (OEG2)2-IP4 was assessed against a panel of 87 enzymes, receptors, or ion channels that are used in standard safety pharmacology screens.
(§2) 3.2. Off-target screening assay
(§3) The experiments were conducted by a contract research organization (Eurofins Panlabs Discovery
(§4) Services Taiwan, Ltd.) and details on the respective assays can be retrieved via the catalog number
(§5) provided in Supplementary Table 11 from the company’s webpage
(§6) (https://www.eurofinsdiscoveryservices.com/). […]

Dopamine D2L = target: T2, Dopamine D2L (Homo sapiens, UniProt P14416); test: Off-target 219500 (D2L); format: binding
T2 construct: purchased Eurofins Panlabs Discovery Services Taiwan, Ltd
T2 sequence (P14416 whole entry): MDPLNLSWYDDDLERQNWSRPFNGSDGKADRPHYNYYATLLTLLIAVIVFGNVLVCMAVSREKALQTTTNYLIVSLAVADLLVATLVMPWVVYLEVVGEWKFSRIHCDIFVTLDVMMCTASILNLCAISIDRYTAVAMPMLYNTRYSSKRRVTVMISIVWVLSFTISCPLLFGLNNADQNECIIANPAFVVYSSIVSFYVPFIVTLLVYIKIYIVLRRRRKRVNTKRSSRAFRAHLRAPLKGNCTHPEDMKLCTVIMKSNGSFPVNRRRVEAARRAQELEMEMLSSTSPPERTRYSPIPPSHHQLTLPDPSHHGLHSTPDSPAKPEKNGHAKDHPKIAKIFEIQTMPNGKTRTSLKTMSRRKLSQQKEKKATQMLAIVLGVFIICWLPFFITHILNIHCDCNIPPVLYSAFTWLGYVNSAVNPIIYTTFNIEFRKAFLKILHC
Description: as §1, §2, §3, §4, §5, §6

Endothelin ETA = target: T3, Endothelin ETA (Homo sapiens, UniProt P25101); test: Off-target 224010; format: binding
T3 construct: purchased Eurofins Panlabs Discovery Services Taiwan, Ltd
T3 sequence (P25101 21-427): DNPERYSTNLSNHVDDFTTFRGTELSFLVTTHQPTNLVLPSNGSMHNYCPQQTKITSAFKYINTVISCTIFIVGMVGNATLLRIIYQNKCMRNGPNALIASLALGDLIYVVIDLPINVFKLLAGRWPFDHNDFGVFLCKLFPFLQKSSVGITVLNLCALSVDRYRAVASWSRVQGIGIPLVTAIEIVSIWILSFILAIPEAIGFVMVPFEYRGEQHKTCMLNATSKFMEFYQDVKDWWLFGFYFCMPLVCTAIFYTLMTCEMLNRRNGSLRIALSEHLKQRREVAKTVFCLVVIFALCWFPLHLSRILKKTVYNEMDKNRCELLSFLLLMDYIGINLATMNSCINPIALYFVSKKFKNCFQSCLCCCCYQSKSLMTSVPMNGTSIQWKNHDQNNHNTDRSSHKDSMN
Description: as §1, §2
(§7) The experiments were conducted by a contract research organization (Eurofins Panlabs Discovery Services Taiwan, Ltd.) and details on the respective assays can be retrieved via the catalog number provided in Supplementary Table 11 from the company’s webpage
as §6
(§8) At sacrifice the left tibia of animals of the rat model with dietary adenine/high-phosphate-induced uremia and VC was collected, fixed with 70% v/v EtOH and embedded in methyl methacrylate. The trabecular bone compartment is known to be the most metabolic active i.e. actively re-structured bone compartment in CKD. Therefore, histomorphometric and micro-computed tomography (µCT) analysis of bone was performed on the trabecular compartment. Tibial sections were Goldner-stained for histomorphometric analysis of the proximal metaphysis using the AxioVision Release 4.5 software, as […]
(§9) described previously5. […]

[2] = system: Glutamate, NMDA, Phencyclidine; test: Off-target 233000; format: binding, Rat; conditions: 10 µM
Description: as §1, §2, §7, §6, §8, §9

Opiate δ1 (OP1, DOP) = target: T4, Opiate δ1 (OP1, DOP) (Homo sapiens, UniProt P41143); test: Off-target 260130; format: binding
T4 construct: purchased Eurofins Panlabs Discovery Services Taiwan, Ltd
T4 sequence (P41143 whole entry): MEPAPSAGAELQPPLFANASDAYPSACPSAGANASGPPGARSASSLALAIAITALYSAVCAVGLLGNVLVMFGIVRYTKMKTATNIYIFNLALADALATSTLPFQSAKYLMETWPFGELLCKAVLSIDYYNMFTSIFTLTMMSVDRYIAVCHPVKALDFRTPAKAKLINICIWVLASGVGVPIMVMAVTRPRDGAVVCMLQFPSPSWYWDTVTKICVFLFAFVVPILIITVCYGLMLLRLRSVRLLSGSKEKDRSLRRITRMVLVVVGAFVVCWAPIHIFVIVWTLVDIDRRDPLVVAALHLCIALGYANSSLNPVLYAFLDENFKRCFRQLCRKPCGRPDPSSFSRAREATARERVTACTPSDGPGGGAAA
Description: as §1, §2, §3, §4, §5, §6

[3] = target: T5, Transporter, Dopamine (DAT) (Homo sapiens, UniProt Q01959); test: Off-target 220320; format: binding
T5 construct: purchased Eurofins Panlabs Discovery Services Taiwan, Ltd
T5 sequence (Q01959 whole entry): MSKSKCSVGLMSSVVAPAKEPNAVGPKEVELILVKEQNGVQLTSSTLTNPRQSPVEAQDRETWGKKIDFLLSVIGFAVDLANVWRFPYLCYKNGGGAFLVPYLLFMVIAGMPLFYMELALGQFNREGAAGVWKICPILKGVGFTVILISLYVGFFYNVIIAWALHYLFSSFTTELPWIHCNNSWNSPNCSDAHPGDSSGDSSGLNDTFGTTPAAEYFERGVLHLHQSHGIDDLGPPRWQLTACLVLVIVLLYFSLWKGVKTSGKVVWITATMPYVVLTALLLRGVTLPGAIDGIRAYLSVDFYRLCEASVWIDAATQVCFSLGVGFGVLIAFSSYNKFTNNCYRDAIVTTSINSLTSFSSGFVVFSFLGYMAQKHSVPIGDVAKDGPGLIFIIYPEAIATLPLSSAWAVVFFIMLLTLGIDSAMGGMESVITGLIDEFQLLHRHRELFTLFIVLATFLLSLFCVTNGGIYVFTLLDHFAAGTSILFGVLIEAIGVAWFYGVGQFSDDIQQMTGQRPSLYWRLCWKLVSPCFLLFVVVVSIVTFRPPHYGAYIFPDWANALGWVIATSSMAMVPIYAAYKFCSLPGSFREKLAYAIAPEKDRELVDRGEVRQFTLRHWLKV
Description: as §1, §2, §3, §4, §5, §6

[4] = male, Sprague-Dawley, rat, iv, 10 mg/kg, Healthy
[5] = male, Sprague-Dawley, rat, iv, 10 mg/kg, Uremic

COCCOCCO[C@@H]1[C@@H](OP(=O)(O)O)[C@H](OCCOCCOC)[C@@H](OP(=O)(O)O)[C@@H](OP(=O)(O)O)[C@H]1OP(=O)(O)O [(OEG2)2-IP4, 4,6-Di-O-(methoxy-diethyleneglycol)-myo-inositol-1,2,3,5-tetrakis(phosphate)]
fold longer t1/2 in uremic rats ([1]; 10 mg/kg i.v.): 1.6 fold
plasma concentration (Figure 4g) ([1]; Healthy, i.v., Time 5 min, individual rats): 34.3554 and 28.9453 and 26.4893 and 36.6347 and 33.1433
plasma concentration (Figure 4g) ([1]; Healthy, i.v., Time 0.25 h, individual rats): 30.5208 and 13.9972 and 12.439 and 10.9827 and 13.2633 and 11.7166
plasma concentration (Figure 4g) ([1]; Healthy, i.v., Time 0.5 h, individual rats): 27.5306 and 9.488 and 4.56 and 3.6178 and 4.794 and 4.014
plasma concentration (Figure 4g) ([1]; Healthy, i.v., Time 1 h, individual rats): 9.6556 and 4.29 and 0.6765 and 0.5745 and 0.5328 and 0.7985
plasma concentration (Figure 4g) ([1]; Healthy, i.v., Time 2 h, individual rats): 7.991 and 1.14 and 0.125 and 0.07468 and 0.07899 and 0.1206
plasma concentration (Figure 4g) ([1]; Healthy, i.v., Time 3 h, individual rats): 3.3004 and 0.5084 and 0.05745 and 0.03303 and 0.0316 and 0.04883
plasma concentration (Figure 4g) ([1]; Healthy, i.v., Time 4 h, individual rats): 2.7015 and 0.1767 and 0.01436 and 0.02585 and 0.02298 and 0.0316
plasma concentration (Figure 4g) ([1]; Uremic, i.v., Time 5 min, individual rats): 32.8173 and 29.5312 and 43.7899 and 28.895 and 62.6472 and 41.0266
plasma concentration (Figure 4g) ([1]; Uremic, i.v., Time 10 min, individual rats): 43.2182 and 28.9366
plasma concentration (Figure 4g) ([1]; Uremic, i.v., Time 0.25 h, individual rats): 27.5292 and 20.3309 and 31.0464 and 22.8615
plasma concentration (Figure 4g) ([1]; Uremic, i.v., Time 0.5 h, individual rats): 20.0681 and 12.3154 and 17.5978 and 17.7285
plasma concentration (Figure 4g) ([1]; Uremic, i.v., Time 1 h, individual rats): 13.305 and 19.9618 and 12.7047 and 6.171 and 9.641 and 11.83
plasma concentration (Figure 4g) ([1]; Uremic, i.v., Time 1.5 h, individual rats): 9.875 and 10.075
plasma concentration (Figure 4g) ([1]; Uremic, i.v., Time 2 h, individual rats): 4.81 and 2.841 and 7.088 and 3.03 and 4.689 and 9.284
plasma concentration (Figure 4g) ([1]; Uremic, i.v., Time 3 h, individual rats): 1.893 and 4.314 and 1.879 and 2.2534
plasma concentration (Figure 4g) ([1]; Uremic, i.v., Time 4 h, individual rats): 1.159 and 0.6736 and 3.1697 and 1.081 and 1.337
concentration at 5 min ([1]; male, Sprague-Dawley, rat, plasma, iv, 10 mg/kg, Healthy, i.v., Time 5 min, individual rats, read-out: plasma concentration (Figure 4g)): 51.8 µM
concentration at 10 min ([1]; male, Sprague-Dawley, rat, plasma, iv, 10 mg/kg, Healthy, i.v., Time 10 min, individual rats, read-out: plasma concentration (Figure 4g)): 36.1 µM
concentration at 10 min ([1]; male, Sprague-Dawley, rat, plasma, iv, 10 mg/kg, Uremic, i.v., Time 10 min, individual rats, read-out: plasma concentration (Figure 4g)): 46 µM
concentration at 0.25 h ([1]; male, Sprague-Dawley, rat, plasma, iv, 10 mg/kg, Uremic, i.v., Time 0.25 h, individual rats, read-out: plasma concentration (Figure 4g)): 27.7 µM
concentration at 0.5 h ([1]; male, Sprague-Dawley, rat, plasma, iv, 10 mg/kg, Uremic, i.v., Time 0.5 h, individual rats, read-out: plasma concentration (Figure 4g)): 19 µM
concentration at 1.5 h ([1]; male, Sprague-Dawley, rat, plasma, iv, 10 mg/kg, Uremic, i.v., Time 1.5 h, individual rats, read-out: plasma concentration (Figure 4g)): 7.2 µM
AUC(0-inf) [1, 4]: 18.5 µM·h
Cmax [1, 4]: 35 ± 9 µM
clearance [1, 4]: 1.07 ± 0.462 L/h/kg
half-life [1, 4]: 52 ± 14 min
AUC(0-t) [1, 4]: 17.8 µM·h
MRT last [1, 4]: 26 min
AUC(0-inf) [1, 5]: 45.6 µM·h
Cmax [1, 5]: 43 ± 12 µM
clearance [1, 5]: 0.348 ± 0.12 L/h/kg
half-life [1, 5]: 83 ± 47 min
AUC(0-t) [1, 5]: 37 µM·h
MRT last [1, 5]: 53 min
inhibition at 10 µM (Dopamine D1): -1%
inhibition at 10 µM (Dopamine D2L): -10%
inhibition at 10 µM (Endothelin ETA): 8%
% Inhibition [2]: 7%
inhibition at 10 µM (Opiate δ1 (OP1, DOP)): -2%
inhibition at 10 µM [3]: 19%
